For assay [1], the target named is T1, Indoleamine 2,3-dioxygenase 1 (Homo sapiens, UniProt P14902). Description: Inhibition of IDO1 (unknown origin) assessed as reduction in kynurenine formation using L-tryptophan as substrate by absorbance based analysis.
Assay [2] deals with T1, Indoleamine 2,3-dioxygenase 1. In words: Inhibition of IDO1 in IFNgamma-stimulated human HeLa cells assessed as reduction in kynurenine formation using L-tryptophan as substrate by absorbance based analysis.

pIC50: −log10 of the molar value.

T1 sequence (P14902 whole entry): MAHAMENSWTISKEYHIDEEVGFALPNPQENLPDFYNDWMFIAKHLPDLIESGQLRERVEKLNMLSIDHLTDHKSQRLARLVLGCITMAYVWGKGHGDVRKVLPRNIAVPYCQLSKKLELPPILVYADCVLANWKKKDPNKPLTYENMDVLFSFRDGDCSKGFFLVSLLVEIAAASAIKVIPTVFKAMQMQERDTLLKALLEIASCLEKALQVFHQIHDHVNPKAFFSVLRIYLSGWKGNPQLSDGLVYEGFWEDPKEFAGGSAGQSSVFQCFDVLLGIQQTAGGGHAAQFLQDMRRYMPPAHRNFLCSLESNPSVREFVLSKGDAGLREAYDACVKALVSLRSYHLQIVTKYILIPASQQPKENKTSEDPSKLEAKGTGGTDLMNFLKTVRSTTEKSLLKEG

Regarding `O/N=C(/Nc1cccc(COc2ccccc2)c1)c1ccc2occc2c1`, the pIC50 in assay [1] and in assay [2] was less than 4.52 throughout.

As for `O=C(NCC1CCCCC1)c1cccc(N/C(=N/O)c2ccc3occc3c2)c1`, the pIC50 in assay [1] and in assay [2] was less than 4.52 each time.

As for `O=C(NCc1ccccc1)c1cccc(N/C(=N/O)c2ccc3occc3c2)c1`, the pIC50 in assay [1] and in assay [2] was less than 4.52 each time.

Turning to `COc1cc(N/C(=N/O)c2ccc3oc4ccccc4c3c2)cc(OC)c1`, the pIC50 in assay [1] and in assay [2] was less than 4.52 throughout.

Take `O/N=C(/Nc1cccc(Br)c1)c1ccc2oc3ccccc3c2c1`: the pIC50 was 5.89 in assay [1] and 4.97 in assay [2].

For the compound `O/N=C(/NCc1cccc(Cl)c1)c1ccc2oc3ccccc3c2c1`, the pIC50 is 5.44 in assay [1] and 4.53 in assay [2].

As to `O/N=C(/Nc1cccc(F)c1)c1ccc2oc(COCC3CC3)cc2c1`, the pIC50 in assay [1] was 5.66; in assay [2] it was 5.10.

As to `O/N=C(/Nc1cccc(C(F)(F)F)c1)c1ccc2occc2c1`, the pIC50 in assay [1] is 5.92; in assay [2], 5.72.

On to `CCCCOc1cccc(N/C(=N/O)c2ccc3occc3c2)c1`, for which the pIC50 in assay [1] and in assay [2] was less than 4.52 each time.

Consider `O/N=C(/NCc1cccs1)c1ccc2occc2c1`, for which the pIC50 in assay [1] is less than 4.52; in assay [2], 4.79.

On to `O/N=C(/Nc1cccc(Cl)c1)c1ccc2oc3ccccc3c2c1`, for which the results for the pIC50 in assay [1] and in assay [2] were 5.74 and 5.12, respectively.

Turning to `COCc1cc2cc(/C(=N\O)Nc3cccc(F)c3)ccc2o1`, the values for the pIC50 in assay [1] and in assay [2] were 5.15 and 5.21, respectively.

Take `O/N=C(/Nc1cccc(F)c1)c1ccc2oc(-c3ccccc3)cc2c1`: the negative logarithm of the IC50 (pIC50) in assay [1] was 4.96; in assay [2], 4.97.

With `CC(=O)c1cccc(N/C(=N/O)c2ccc3occc3c2)c1`, the pIC50 in assay [1] and in assay [2] was less than 4.52 in each case.

For `COCc1cc2cc(/C(=N\O)Nc3cccc(Br)c3)ccc2o1`, the pIC50 in assay [1] was 6.03; in assay [2], 5.60.

Take `O/N=C(/Nc1cccc(Br)c1)c1ccc2occc2c1`: the negative-log IC50 (pIC50) in assay [1] is 6.36; in assay [2], 5.96.

Regarding `OCc1cc2cc(/C(=N\O)Nc3cccc(Br)c3)ccc2o1`, the pIC50 in assay [1] is 6.15; in assay [2], 5.92.

With `O/N=C(/Nc1cccc(-c2ccccc2)c1)c1ccc2occc2c1`, the pIC50 in assay [1] is 4.96; in assay [2], 4.92.

Consider `O/N=C(/Nc1cccc(Cl)c1)c1ccc2oc(-c3ccccc3)cc2c1`, for which the pIC50 in assay [1] was 6.05; in assay [2], 4.97.

For `O/N=C(/Nc1ccc(F)c(Br)c1)c1ccc2oc3ccccc3c2c1`, the pIC50 is 5.62 in assay [1] and 4.79 in assay [2].

For `O/N=C(/Nc1ccc(F)c(Cl)c1)c1ccc2oc3ccccc3c2c1`, the pIC50 is 5.02 in assay [1] and 4.64 in assay [2].

As to `O/N=C(/Nc1ccc(F)c(F)c1)c1ccc2occc2c1`, the values for the pIC50 in assay [1] and in assay [2] were 4.64 and 4.85, respectively.

Take `O/N=C(/Nc1ccccc1)c1ccc2occc2c1`: the negative-log IC50 (pIC50) was less than 4.52 in assay [1] and 4.72 in assay [2].

As to `O/N=C(/NCc1cccc(Cl)c1)c1ccc2occc2c1`, the values for the pIC50 in assay [1] and in assay [2] were less than 4.52 and 5.24, respectively.

For the compound `OCc1cc2cc(/C(=N\O)Nc3cccc(F)c3)ccc2o1`, the values for the pIC50 in assay [1] and in assay [2] were 5.77 and 5.62, respectively.

Regarding `O/N=C(/Nc1cccc(Br)c1)c1ccc2oc(COCC3CC3)cc2c1`, the pIC50 in assay [1] is 6.40; in assay [2] it was 5.49.

`O/N=C(/NCc1ccco1)c1ccc2occc2c1`: the pIC50 in assay [1] and in assay [2] was less than 4.52 in each case.

Consider `O/N=C(/Nc1ccc(F)c(Br)c1)c1ccc2occc2c1`, for which the pIC50 in assay [1] is 5.80; in assay [2], 5.59.

Turning to `COCc1cc2cc(/C(=N\O)Nc3cccc(Cl)c3)ccc2o1`, the pIC50 was 6.00 in assay [1] and 5.66 in assay [2].

With `OCc1cc2cc(/C(=N\O)Nc3cccc(Cl)c3)ccc2o1`, the pIC50 in assay [1] is 5.10; in assay [2] it was 5.23.

With `O/N=C(/Nc1cccc(Br)c1)c1ccc2oc(-c3ccccc3)cc2c1`, the pIC50 is 6.05 in assay [1] and 5.07 in assay [2].

`O/N=C(/Nc1cccc(Oc2ccccc2)c1)c1ccc2occc2c1`: the pIC50 in assay [1] and in assay [2] was less than 4.52 in each case.

Regarding `O/N=C(/NCc1ccc(F)c(Cl)c1)c1ccc2occc2c1`, the pIC50 in assay [1] is 4.66; in assay [2], 4.75.

Regarding `O/N=C(/NCc1ccccc1)c1ccc2occc2c1`, the figures for the pIC50 in assay [1] and in assay [2] were less than 4.52 and 4.55, respectively.

Take `O/N=C(/Nc1cccc(Cc2ccccc2)c1)c1ccc2occc2c1`: the pIC50 in assay [1] and in assay [2] was less than 4.52 in each case.

With `O/N=C(/Nc1ccc(Cl)c(F)c1)c1ccc2occc2c1`, the pIC50 in assay [1] is less than 4.52; in assay [2] it was 4.99.

Regarding `O/N=C(/NCC1CC1)c1ccc2occc2c1`, the negative logarithm of the IC50 (pIC50) in assay [1] and in assay [2] was less than 4.52 each time.

As to `O/N=C(/Nc1ccc(F)c(C(F)(F)F)c1)c1ccc2occc2c1`, the negative logarithm of the IC50 (pIC50) in assay [1] was 5.92; in assay [2], 5.66.

On to `O/N=C(/Nc1ccc(Cl)cc1)c1ccc2occc2c1`, for which the pIC50 in assay [1] and in assay [2] was less than 4.52 in each case.

As to `O/N=C(/Nc1ccc(F)c(Cl)c1)c1ccc2occc2c1`, the pIC50 is 5.28 in assay [1] and 5.74 in assay [2].

As for `Cc1ccc(N/C(=N/O)c2ccc3occc3c2)cc1C`, the pIC50 in assay [1] and in assay [2] was less than 4.52 each time.

For `CC1CCN(C(=O)c2cccc(N/C(=N/O)c3ccc4occc4c3)c2)CC1`, the pIC50 in assay [1] and in assay [2] was less than 4.52 in each case.

As to `O/N=C(/Nc1cccc(F)c1)c1ccc2occc2c1`, the results for the pIC50 in assay [1] and in assay [2] were 4.49 and 4.70, respectively.

On to `O/N=C(/Nc1cccc(Cl)c1)c1ccc2oc(COCC3CC3)cc2c1`, for which the pIC50 in assay [1] is 5.82; in assay [2], 4.75.

With `O/N=C(/Nc1cccc(Cl)c1)c1ccc2occc2c1`, the pIC50 in assay [1] was 6.16; in assay [2], 5.82.

The values are drawn from ChEMBL document CHEMBL4819055, “Discovery of 5-(N-hydroxycarbamimidoyl) benzofuran derivatives as novel indoleamine 2,3-dioxygenase 1 (IDO1) inhibitors” (Bioorg Med Chem Lett, 2021).
